Measurements as given in patent US8647657B2, “Polymeric devices for controlled release of active agents” (Durect Corporation, priority 2003, dated 2014).

How the values were obtained:
[1] = system: LH; experiment: Blood level of LH after time-released leuprolide acetate device; assay type: in vivo, human
Method: (§1) For example, a 30 mg time-released dose of leuprolide acetate can be administered to an adult subject. The leuprolide acetate active agent is provided in a biodegradable polymer system to supply a polymeric device for controlled release of the active agent. […] The leuprolide acetate active agent is incorporated within the polymer system such that the polymer system provides for controlled release of the agent from the device. When the device is administered to the subject, for example, when it is implanted, the device releases the active agent in a controlled fashion without a lag period, or with a minimal lag period. In this manner, the leuprolide can be gradually released over a period of several months. After a period of two weeks, the subject's blood level of LH may be undetectable and the subject's blood level of FSH may be approximately 5 mIU/mL.
(§2) In another example, a dose of 1.88 mg time-released dose of leuprolide acetate can be administered to a subject. The leuprolide acetate active agent is provided in a biodegradable polymer system to supply a polymeric device for controlled release of the active agent. […] The leuprolide acetate active agent is incorporated within the polymer system such that the polymer system provides for controlled release of the agent from the device. […]

[2] = system: FSH; experiment: Blood level of FSH after time-released leuprolide acetate device; assay type: in vivo, human
Method: as §1, §2

[3] = 1.88 mg time-released dose in polymeric device, released over approximately one month
[4] = 30 mg time-released dose in polymeric device, adult subject, after two weeks

SMILES: CCNC(=O)[C@@H]1CCCN1C(=O)[C@H](CCCNC(=N)N)NC(=O)[C@H](CC(C)C)NC(=O)[C@@H](CC(C)C)NC(=O)[C@H](Cc1ccc(O)cc1)NC(=O)[C@H](CO)NC(=O)[C@H](Cc1c[nH]c2ccccc12)NC(=O)[C@H](Cc1c[nH]cn1)NC(=O)[C@@H]1CCC(=O)N1 [leuprolide acetate]
- LH blood levels [1, 3]: undetectable levels
- blood level of LH [1, 4]: undetectable
- FSH blood levels [2, 3]: undetectable levels
- blood level of FSH [2, 4]: approximately 5 mIU/mL
